Results reported in patent US20240228491A1, “METHIONINE ADENOSYLTRANSFERASE INHIBITOR, PREPARATION METHOD THEREFOR AND APPLICATION THEREOF” (SCINNOHUB PHARMACEUTICAL CO., LTD., priority 2021, published 2024).
Where two headings read alike, the source gives them in different places.

How the values were obtained:
KP-4 cells = assay: Inhibitory activity test of KP-4 cells; format: cell-based; settings: Homo sapiens, 144 h incubation, read-out: KP-4 cell inhibitory activity IC50
Protocol: On day 1, cell seeding: after digestion of the cells with trypsin, the cells were resuspended to 1*10^4/mL with RPMI1640 complete medium (HyClone Company, Cat. No. SH30809.01) supplemented with 10% FBS (Gibco, 10099141C), mixed evenly, and added into the 96-well plate at 100 μL/well. The plate was put back to the incubator for the adherent growth of cells. On day 2, the addition of the compounds to be tested: 100 μL of the complete medium containing the compounds (the concentration of the compound in the medium was formulated as follows: 3-fold gradient dilution from 60 μM, 10 concentration gradients in total) was added, incubated for 144 hours at 37° C., 5% CO2. On day 8, the cell culture plates were taken out from incubator and equilibrated to room temperature, excess medium was pipetted from the wells so that 50 μL of supernatant was retained, and 50 μL of CellCounting-Lite 2.0 (Nanjing Vazyme Biotech Co., Ltd., Cat. No. DD1101) reagent was added per well, and the cells were fully lysed by shaking at room temperature for 10 min, and incubated for 5 min to detect the fluorescence intensity.
% Inhibition=100−(signal of the well with the compound to be tested−signal of the well with only medium and free of cells)/(signal of the well with cells but without addition of the compound−signal of the well with only medium and free of cells)×100.
The log value of concentration was used as the X-axis and % Inhibition was used as the Y-axis, so as to fit the dose-effect curve and calculate the IC50 value using nonlinear regression (dose response−variable slope) in the analysis software GraphPad Prism 8.

[1] = In vivo pharmacokinetic study in ICR mice; settings: plasma; for AUC(0-t): read-out: Area under curve AUC(0-t); for Cmax: read-out: Maximal concentration Cmax
Protocol: Species: ICR mice, SPF grade. Source: Shanghai Xipuer-Bikai Laboratory Animal Co., Ltd. Number: 3 mice per dosage form.
(§1) 2.1 An appropriate amount of the test sample was accurately weighed, into which 5% DMSO, 10% polyethylene glycol-15 hydroxystearate, 85% normal saline (all in volume percent) were added sequentially, and were fully mixed via vortex or ultrasound, to obtain the dosing solution with a test sample concentration of 0.4 mg/mL for intravenous administration.
as §1, with “2.2” for “2.1”, “1” for “0.4”, “oral gavage” for “intravenous”
Weighing was performed before administration, and the administration amount was calculated according to the body weight. The drug was administered orally by gavage or intravenously.
Before and 0.083 h, 0.25 h, 0.5 h, 1 h, 2 h, 4 h, 6 h, 8 h, 24 h after administration.
Blood was collected via submandibular vein or other suitable means, and approximately 0.03 mL per sample was collected via anticoagulation with heparin sodium. Blood samples were placed on ice after collection and centrifuged to separate plasma within 1 h (centrifugation conditions: centrifugal force of 6800 g, 6 min, 2-8° C.). The collected plasma samples were stored in a −80° C. refrigerator before analysis, and the remaining plasma samples continued to be stored in a −80° C. refrigerator for temporary storage after analysis.
When plot the plasma concentration-time curve according to the detected plasma concentration of the test substance, BLQ (Beneath Limit of Quantification) was recorded as 0. When calculating pharmacokinetic parameters, the concentration before administration was calculated as 0; BLQ (including “No peak”) before Cmax was calculated as 0; BLQ (including “No peak”) after Cmax was not involved in the calculation. Pharmacokinetic parameters, such as AUC(0-t), T1/2, Cmax, etc., were calculated by WinNonlin using the plasma concentration data at different time points.

IC50 (KP-4 cells): 360 nM | Apparent clearance rate Cl ([1]; IV 2 mg/kg): 1.03 mL/min/kg | AUC(0-t) ([1]; mouse, IV 2 mg/kg): 31.7 µg·h/mL | half-life ([1]; mouse, IV 2 mg/kg, read-out: Half life T1/2 (converted)): 5.53 h | Cmax ([1]; mouse, IV 2 mg/kg): 3540 ng/mL | AUC(0-t) ([1]; mouse, PO 10 mg/kg): 211 µg·h/mL | half-life ([1]; mouse, PO 10 mg/kg, read-out: Half life t1/2 (converted)): 9.32 h | Cmax ([1]; mouse, PO 10 mg/kg): 18100 ng/mL | bioavailability ([1]; mouse, PO 10 mg/kg vs IV 2 mg/kg, read-out: Bioavailability F %): 133%
SMILES: Nc1c(-c2ccc3nccnc3c2)c(=O)n(-c2ccc(Cl)cc2)c2nc(C(F)(F)F)ccc12 [Example 36]
